Assay results as given in patent US20230391739A1, “ARYL DERIVATIVES FOR TREATING TRPM3 MEDIATED DISORDERS” (Katholieke Universiteit Leuven, priority 2020, published 2023).

Each compound was assayed against T1, mouse TRPM3α2 (mTRPM3) ion channel (Mus musculus, UniProt J9SQF3) (assay: TRPM3 ion channel driven Ca2+ uptake, Fluo-4 AM assay, PS-stimulated (mTRPM3)). Conditions: TRPM3 overexpressing flip-in HEK293 cells stimulated with Pregnenolone sulfate (PS) 50 μM, activity ranges A, B, C.
T1 construct: expressed in transfected cells; host or cells: flip-in HEK293
T1 sequence (J9SQF3 1-1709 isoform J9SQF3-12): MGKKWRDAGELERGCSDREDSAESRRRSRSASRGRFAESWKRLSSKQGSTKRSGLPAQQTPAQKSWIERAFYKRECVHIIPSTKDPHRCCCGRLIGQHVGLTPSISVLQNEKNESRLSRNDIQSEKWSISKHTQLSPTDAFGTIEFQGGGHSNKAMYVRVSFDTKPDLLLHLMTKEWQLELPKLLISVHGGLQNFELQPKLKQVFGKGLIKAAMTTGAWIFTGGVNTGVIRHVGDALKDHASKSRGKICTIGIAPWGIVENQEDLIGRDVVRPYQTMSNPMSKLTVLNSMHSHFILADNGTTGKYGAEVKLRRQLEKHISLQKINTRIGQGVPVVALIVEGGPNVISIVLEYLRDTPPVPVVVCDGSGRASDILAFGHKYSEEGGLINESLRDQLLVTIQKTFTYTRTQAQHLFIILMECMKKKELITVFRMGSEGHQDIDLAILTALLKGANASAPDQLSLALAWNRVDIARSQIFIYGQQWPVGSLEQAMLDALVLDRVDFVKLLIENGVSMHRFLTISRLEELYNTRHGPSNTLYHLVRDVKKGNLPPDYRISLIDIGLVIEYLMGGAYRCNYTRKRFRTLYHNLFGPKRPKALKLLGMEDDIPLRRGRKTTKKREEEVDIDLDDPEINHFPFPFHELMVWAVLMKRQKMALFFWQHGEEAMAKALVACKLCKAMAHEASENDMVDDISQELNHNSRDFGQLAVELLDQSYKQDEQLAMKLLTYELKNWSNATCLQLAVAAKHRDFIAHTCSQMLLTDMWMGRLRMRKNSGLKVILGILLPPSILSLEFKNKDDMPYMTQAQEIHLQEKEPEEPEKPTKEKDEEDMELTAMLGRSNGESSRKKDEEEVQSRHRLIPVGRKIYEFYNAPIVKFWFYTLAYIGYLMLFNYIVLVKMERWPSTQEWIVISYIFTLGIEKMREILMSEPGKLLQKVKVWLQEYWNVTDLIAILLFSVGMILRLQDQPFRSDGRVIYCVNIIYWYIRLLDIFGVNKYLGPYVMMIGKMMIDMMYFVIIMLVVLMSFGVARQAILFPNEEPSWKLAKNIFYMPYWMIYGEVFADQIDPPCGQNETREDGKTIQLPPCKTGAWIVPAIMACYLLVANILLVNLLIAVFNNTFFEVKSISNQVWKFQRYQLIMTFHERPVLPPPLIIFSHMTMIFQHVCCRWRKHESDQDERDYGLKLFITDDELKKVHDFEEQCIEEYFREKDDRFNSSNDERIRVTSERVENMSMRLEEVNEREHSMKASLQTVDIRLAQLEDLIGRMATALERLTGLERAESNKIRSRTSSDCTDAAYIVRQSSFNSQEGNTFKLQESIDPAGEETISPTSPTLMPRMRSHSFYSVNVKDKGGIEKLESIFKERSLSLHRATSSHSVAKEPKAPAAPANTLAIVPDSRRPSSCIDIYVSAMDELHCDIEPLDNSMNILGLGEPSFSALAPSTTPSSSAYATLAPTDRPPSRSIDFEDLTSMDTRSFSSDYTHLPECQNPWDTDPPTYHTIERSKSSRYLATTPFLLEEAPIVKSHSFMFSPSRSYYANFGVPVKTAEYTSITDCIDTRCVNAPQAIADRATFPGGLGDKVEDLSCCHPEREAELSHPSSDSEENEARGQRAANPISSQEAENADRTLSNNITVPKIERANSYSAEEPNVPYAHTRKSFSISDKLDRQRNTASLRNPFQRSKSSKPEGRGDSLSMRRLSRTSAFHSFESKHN
Type: cell-based
Method in brief: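 Flp-In HEK293 cells overexpressing mTRPM3α2 were added, in Ca²⁺-free Krebs, to wells already holding compound and 50 μM pregnenolone sulfate in Ca²⁺-containing Krebs. Fluo-4 AM fluorescence (ex 485/em 535 nm) was read immediately. Percent inhibition was computed from RFU relative to PS/vehicle wells and a positive-control inhibitor.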
For `Cc1oc2ccc(OCc3ccccc3F)cc2c1C(=O)NC1(CO)COC1` [Cpd 310, 5-((2-fluorobenzyl)oxy)-N-(3-(hydroxymethyl)oxetan-3-yl)-2-methylbenzofuran-3-carboxamide], the IC50 was less than 1000 nM.
`Cc1oc2ccc(OCc3ccccc3F)cc2c1C(=O)NC(C)(CO)CO` [Cpd 312, N-(1,3-dihydroxy-2-methylpropan-2-yl)-5-((2-fluorobenzyl)oxy)-2-methylbenzofuran-3-carboxamide] was tested, and the IC50 was less than 1000 nM.
For `Cc1oc2ccc(OCc3ccccc3F)cc2c1C(=O)NC(C)(C)CO` [Cpd 313, 5-((2-fluorobenzyl)oxy)-N-(1-hydroxy-2-methylpropan-2-yl)-2-methylbenzofuran-3-carboxamide], the IC50 was less than 1000 nM.
`Cc1oc2ccc(OCc3ccccc3F)cc2c1C(=O)NC(C)(C)C(N)=O` [Cpd 315, N-(1-amino-2-methyl-1-oxopropan-2-yl)-5-((2-fluorobenzyl)oxy)-2-methylbenzofuran-3-carboxamide] showed an IC50 of less than 1000 nM.
`Cc1oc2ccc(OC(C)(C)c3ccccc3)cc2c1C(=O)NC1(CO)CCOCC1` [Cpd 316, N-(4-(hydroxymethyl)tetrahydro-2H-pyran-4-yl)-2-methyl-5-((2-phenylpropan-2-yl)oxy)benzofuran-3-carboxamide] gave an IC50 of less than 1000 nM.
In the case of `Cc1oc2ccc(COc3ccccc3F)cc2c1C(=O)NC(C)(C)CO` [Cpd 319, 5-((2-fluorophenoxy)methyl)-N-(1-hydroxy-2-methylpropan-2-yl)-2-methylbenzofuran-3-carboxamide], the IC50 is reported as 1000 to 20000 nM.
Work on `Cc1oc2ccc(OCc3ccccc3F)cc2c1C(=O)NC1(C(N)=O)CCC1` [Cpd 322, N-(1-carbamoylcyclobutyl)-5-((2-fluorobenzyl)oxy)-2-methylbenzofuran-3-carboxamide] yielded an IC50 of less than 1000 nM.
With `Cc1oc2ccc(OCc3ccccc3F)cc2c1C(=O)NC1(CO)CCC1` [Cpd 324, 5-((2-fluorobenzyl)oxy)-N-(1-(hydroxymethyl)cyclobutyl)-2-methylbenzofuran-3-carboxamide] the IC50 was less than 1000 nM.
`Cc1oc2ccc(OCc3ccccc3F)cc2c1C(=O)NC1(CO)CC1` [Cpd 325, 5-((2-fluorobenzyl)oxy)-N-(1-(hydroxymethyl)cyclopropyl)-2-methylbenzofuran-3-carboxamide] was tested, and the IC50 was less than 1000 nM.
For `Cc1oc2ccc(OCc3ccccc3F)cc2c1C(=O)NC1(C(N)=O)CC1` [Cpd 326, N-(1-carbamoylcyclopropyl)-5-((2-fluorobenzyl)oxy)-2-methylbenzofuran-3-carboxamide], the IC50 was less than 1000 nM.
With `Cc1oc2ccc(OCc3ccccc3S(C)(=O)=O)cc2c1C(=O)NC1(CO)CCOCC1` [Cpd 332, N-(4-(hydroxymethyl)tetrahydro-2H-pyran-4-yl)-2-methyl-5-((2-(methylsulfonyl)benzyl)oxy)benzofuran-3-carboxamide] the IC50 was 1000 to 20000 nM.
Work on `Cc1oc2ccc(OCc3ccccc3)cc2c1C(=O)N[C@@H](CO)C(N)=O` [Cpd 337, (S)—N-(1-amino-3-hydroxy-1-oxopropan-2-yl)-5-(benzyloxy)-2-methylbenzofuran-3-carboxamide] yielded an IC50 of less than 1000 nM.
With `Cc1oc2ccc(OCc3ccccc3Cl)cc2c1C(=O)N[C@@H](CO)C(N)=O` [Cpd 338, (S)—N-(1-Amino-3-hydroxy-1-oxopropan-2-yl)-5-((2-chlorobenzyl)oxy)-2-methylbenzofuran-3-carboxamide] the IC50 was less than 1000 nM.
Compound `COc1ccccc1COc1ccc2oc(C)c(C(=O)N[C@@H](CO)C(N)=O)c2c1` [Cpd 339, (S)—N-(1-Amino-3-hydroxy-1-oxopropan-2-yl)-5-((2-methoxybenzyl)oxy)-2-methylbenzofuran-3-carboxamide] has an IC50 of less than 1000 nM.
With `Cc1oc2ccc(OCc3ccc(F)cc3F)cc2c1C(=O)N[C@@H](CO)C(N)=O` [Cpd 340, (S)—N-(1-amino-3-hydroxy-1-oxopropan-2-yl)-5-((2,4-difluorobenzyl)oxy)-2-methylbenzofuran-3-carboxamide] the IC50 was less than 1000 nM.
Compound `Cc1ccc(COc2ccc3oc(C)c(C(=O)N[C@@H](CO)C(N)=O)c3c2)c(F)c1` [Cpd 342, (S)—N-(1-amino-3-hydroxy-1-oxopropan-2-yl)-5-((2-fluoro-4-methylbenzyl)oxy)-2-methylbenzofuran-3-carboxamide] has an IC50 of less than 1000 nM.
